Measured values published in PubChem BioAssay (NCI).
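Growth conditions: 96-well plates. Treatment: test compound, 48 hours, 5 concentrations. Analysis: linear interpolation between bracketing concentrations; unreached endpoints set to highest concentration. Abbreviation: GI50, concentration required for 50% inhibition of growth. TGI marks complete inhibition of growth.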

Columns and labels:
Test in all cases: inhibition of tumour cell growth, NCI panel, 48 h
[1] = tested on: SK-MEL-5 melanoma
[2] = tested on: OVCAR-5 ovarian
[3] = tested on: EKVX NSCLC
[4] = tested on: NCI-H23 lung
[5] = tested on: RXF 393 renal
[6] = tested on: NCI-H460 lung
[7] = tested on: SN12C renal
[8] = tested on: HT29 colon
[9] = tested on: A498 renal
[10] = tested on: T-47D breast

Compound	GI50 [1]	TGI [1]	GI50 [2]	TGI [2]	GI50 [3]	TGI [3]	GI50 [4]	TGI [4]	GI50 [5]	TGI [5]	GI50 [6]	TGI [6]	TGI [7]	TGI [8]	TGI [9]	GI50 [8]	GI50 [9]	GI50 [7]	GI50 [10]	TGI [10]
CN(C)C(=O)c1cnc2oc3ccc(O)cc3c2c1-c1ccccc1	6.75 µM	> 25 µM	6.94 µM	> 25 µM	> 25 µM	> 25 µM	11.5 µM	> 25 µM	> 25 µM	> 25 µM	16.2 µM	> 25 µM	–	–	–	–	–	–	–	–
O=S(=O)(/C=C/CS(=O)(=O)c1ccccc1)c1ccccc1	–	> 100 µM	–	> 100 µM	–	> 100 µM	–	50 µM	–	> 100 µM	–	63.9 µM	88 µM	> 100 µM	82.3 µM	–	–	–	–	–
CC(=O)O[C@H]1CCC2[C@@H]3CCC4c5nonc5CC[C@]4(C)C3CC[C@@]21C (some centres undefined)	–	> 10 µM	> 100 µM	> 100 µM	> 100 µM	> 100 µM	–	> 10 µM	–	> 10 µM	–	> 10 µM	> 10 µM	> 100 µM	> 10 µM	> 100 µM	–	–	–	–
COc1ccc2nc3cc(Cl)ccc3c(SCC(=O)Nc3ccccc3-c3ccccc3NC(=O)CSc3c4ccc(Cl)cc4nc4ccc(OC)cc34)c2c1	–	> 100 µM	–	> 100 µM	–	> 100 µM	–	> 100 µM	–	> 100 µM	–	> 100 µM	> 100 µM	> 100 µM	> 100 µM	–	–	–	–	–
COc1cnc2c(c1)C(=O)c1c-2n(CCCNC2=NCCS2)c(=O)c2cc(Cl)ccc12	0.812 µM	2.12 µM	1.82 µM	3.45 µM	1.64 µM	3.39 µM	0.3 µM	2.11 µM	0.783 µM	2.2 µM	0.0299 µM	1.16 µM	–	2.23 µM	19.8 µM	0.121 µM	1.29 µM	–	–	–
Oc1c(Cl)c(Cl)c(O)c2c1CCCC2	–	25.7 µM	–	–	–	21.4 µM	–	40.8 µM	–	22.5 µM	–	31.9 µM	30.2 µM	44.6 µM	33.1 µM	–	–	–	–	–
CCCN(CCC)C(=O)C(=O)c1c(N)[nH]n(-c2ccccc2)c1=O	–	> 100 µM	–	> 100 µM	–	> 100 µM	–	> 100 µM	–	–	–	> 100 µM	> 100 µM	> 100 µM	> 100 µM	–	–	–	–	–
O=C1/C(=N\O)S(=O)(=O)c2ccccc21	–	> 100 µM	–	> 100 µM	–	–	–	–	–	> 100 µM	–	> 100 µM	> 100 µM	> 100 µM	> 100 µM	–	–	–	–	–
NC(=O)NC12CC3CC(CC(F)(C3)C1)C2	–	–	–	> 100 µM	–	> 100 µM	–	> 100 µM	–	> 100 µM	–	> 100 µM	–	> 100 µM	> 100 µM	–	–	–	–	–
O=[N+]([O-])c1ccc(N=Nc2ccc(O)c3ccccc23)cc1	2.55 µM	13.6 µM	14.4 µM	75.8 µM	7.44 µM	> 100 µM	1.79 µM	6.88 µM	4.87 µM	39.4 µM	3.49 µM	27.1 µM	> 100 µM	> 100 µM	86.8 µM	13.7 µM	3.32 µM	3.55 µM	–	–
CC(C)(c1ccccc1)c1ccc(Oc2ccc(C#N)c(C#N)c2)cc1	–	> 100 µM	> 100 µM	> 100 µM	–	> 100 µM	–	> 100 µM	–	> 100 µM	> 100 µM	> 100 µM	> 100 µM	–	> 100 µM	–	> 100 µM	> 100 µM	–	–
O=C(O)C(CS)NCc1c2ccccc2nc2ccccc12 (centres undefined)	–	–	–	> 100 µM	–	> 100 µM	–	> 100 µM	–	98.4 µM	–	> 100 µM	> 100 µM	> 100 µM	–	–	–	–	–	–
C[C@]12CC[C@@H]3c4ccc(O)cc4CC[C@H]3[C@@H]1Cc1cnc(N)nc12	12.8 µM	26.1 µM	28.9 µM	76.1 µM	9.47 µM	34.9 µM	18.1 µM	41 µM	11.5 µM	31.3 µM	9.95 µM	24.9 µM	44.2 µM	> 100 µM	–	52.9 µM	–	20.6 µM	–	–
CC(C)(C)c1[nH]nc2c1C(c1cc3ccccc3[nH]c1=O)Nc1cc(C(=O)OCc3ccccc3)ccc1N2 (centres undefined)	–	–	4.05 µM	> 100 µM	–	–	5.14 µM	> 100 µM	–	–	3.14 µM	> 100 µM	> 100 µM	6.52 µM	81.9 µM	2.75 µM	3.73 µM	3.77 µM	4.08 µM	> 100 µM
CCC[CH2][Sn]1([CH2]CCC)[O]C2C(CO)OC(n3ccc(N)nc3=O)C2[O]1 (centres undefined)	1.61 µM	2.99 µM	1.57 µM	3.03 µM	–	–	1.35 µM	3.08 µM	1.22 µM	2.48 µM	1.79 µM	3.6 µM	2.83 µM	–	1.17 µM	–	0.271 µM	1.45 µM	0.383 µM	2.49 µM
COC1=C(C)C(=O)c2c(cc3c(c2O)C(C)(CCC=C(C)C)C(C)O3)C1=O (centres undefined)	–	27.4 µM	–	> 100 µM	–	> 100 µM	–	68.5 µM	–	> 100 µM	–	27.2 µM	> 61.8 µM	> 100 µM	35 µM	–	–	–	–	–
COc1ccc(C2=CC(c3ccc(OC)cc3Br)N3C=CSC3=N2)cc1 (centres undefined)	4.32 µM	16.6 µM	12.4 µM	32.3 µM	–	–	15.2 µM	42.8 µM	7.67 µM	22 µM	11.9 µM	34.6 µM	25.5 µM	4.87 µM	32.5 µM	2.09 µM	13.3 µM	10 µM	9.21 µM	40.4 µM
CNC(=O)OCc1c2ccncc2c(C)c2c1[nH]c1ccc(OC)cc12	–	–	–	0.808 µM	–	> 100 µM	–	–	–	–	–	1.3 µM	> 100 µM	> 100 µM	0.458 µM	–	–	–	–	–

Compound	GI50 [1]	TGI [1]	GI50 [2]	TGI [2]	GI50 [3]	TGI [3]	GI50 [4]	TGI [4]	GI50 [5]	TGI [5]	GI50 [6]	TGI [6]	TGI [7]	TGI [8]	TGI [9]	GI50 [8]	GI50 [9]	GI50 [7]	GI50 [10]	TGI [10]
COC(=O)C(CC1=C(O)Nc2ccccc2N1)/C(=N/NC(N)=O)C(=O)Nc1ccccc1C (centres undefined)	–	> 100 µM	–	> 100 µM	–	> 100 µM	–	> 100 µM	–	> 100 µM	–	> 100 µM	> 100 µM	> 100 µM	> 100 µM	–	–	–	–	–
COc1cccc(NC(=O)CC(=O)N2N=C(N3c4ccccc4Sc4ccccc43)CC2c2ccccc2)c1 (centres undefined)	–	> 100 µM	–	> 100 µM	–	> 100 µM	–	> 100 µM	–	> 100 µM	–	> 100 µM	> 100 µM	> 100 µM	> 100 µM	–	–	–	–	–
CCc1ccccc1NC(=O)/C(N=O)=C(/C)O	–	> 100 µM	–	–	–	> 100 µM	–	> 100 µM	–	> 100 µM	–	> 100 µM	> 100 µM	> 100 µM	> 100 µM	–	–	–	–	–
CCOC(=O)c1cc2c(n1Cc1cc(OC)c(OC)c(OC)c1)-c1oncc1CCC2	0.207 µM	7.01 µM	0.481 µM	> 100 µM	–	–	0.388 µM	> 43.2 µM	0.126 µM	> 100 µM	0.284 µM	13.7 µM	> 40.1 µM	2.67 µM	0.435 µM	0.138 µM	0.0602 µM	0.628 µM	0.373 µM	53.4 µM
C[CH2][Sn]([CH2]C)([O]C(=O)c1ccccc1F)[O][Sn]([CH2]C)([CH2]C)[O]C(=O)c1ccccc1F	41.2 µM	> 70.3 µM	> 49.3 µM	> 71.4 µM	33.9 µM	> 100 µM	15.8 µM	33.6 µM	14.1 µM	27.9 µM	> 54 µM	> 100 µM	> 57.4 µM	> 72.7 µM	37.4 µM	39.8 µM	22.5 µM	27 µM	–	–
COc1ccc(CC2(Cc3ccc(OC)cc3)CCOC2=O)cc1	–	–	–	> 100 µM	–	> 100 µM	–	> 100 µM	–	–	–	> 100 µM	> 100 µM	> 100 µM	> 100 µM	–	–	–	–	–
CCc1cccc(C)c1NC(=O)C1=C(C)NC(C)=C(C(=O)Nc2c(C)cccc2CC)C1c1ccc2c(c1)OCO2	–	31.9 µM	–	44.5 µM	–	58.6 µM	–	31.4 µM	–	27.2 µM	–	45.5 µM	42.6 µM	39.4 µM	34.6 µM	–	–	–	–	–
CC(C)CCNCC(O)Cn1c2ccccc2c2ccccc21 (centres undefined)	2.27 µM	6.25 µM	12.4 µM	25.7 µM	–	–	16.4 µM	31.9 µM	5.36 µM	19.9 µM	3.64 µM	13.7 µM	25.1 µM	10.6 µM	22.8 µM	3.42 µM	9.52 µM	11.2 µM	3.99 µM	14.6 µM
Nc1c(C(=O)c2cccc(C#CCO)c2)cnn1-c1ccc(F)cc1	> 25 µM	> 25 µM	> 25 µM	> 25 µM	–	–	> 25 µM	> 25 µM	> 25 µM	> 25 µM	> 25 µM	> 25 µM	> 25 µM	> 25 µM	> 25 µM	> 25 µM	> 18.5 µM	> 25 µM	> 25 µM	> 25 µM
COc1cc2c(cc1OC)[C@@H](Nc1ccc(F)cc1)C1COC(=O)[C@@H]1C2c1cc(OC)c(O)c(OC)c1 (some centres undefined)	–	23.2 µM	–	> 100 µM	–	> 100 µM	–	18.6 µM	–	71.8 µM	–	2.16 µM	13.7 µM	> 58.3 µM	7.78 µM	–	–	–	–	–
O=C(NC(=Nc1ccccc1)SCCSC(=Nc1ccccc1)NC(=O)c1cccs1)c1cccs1	–	74 µM	–	> 100 µM	–	> 100 µM	–	> 100 µM	–	68.9 µM	–	> 100 µM	> 100 µM	> 100 µM	> 100 µM	–	–	–	–	–
COC(=O)c1cc2ccccc2c2c3c(ccc12)OCO3	45.2 µM	> 1000 µM	223 µM	> 1000 µM	–	–	161 µM	> 1000 µM	14.8 µM	89.5 µM	290 µM	> 1000 µM	> 1000 µM	> 1000 µM	129 µM	33.7 µM	15.5 µM	205 µM	44.2 µM	> 1000 µM
Cc1ccc(-c2csc(NC(=O)N3CCN(c4cc5c(cc4F)c(=O)c(C(=O)O)cn5C4CC4)CC3)n2)cc1	0.889 µM	2.51 µM	0.867 µM	> 100 µM	1.49 µM	> 100 µM	0.391 µM	> 100 µM	0.602 µM	55 µM	0.355 µM	> 100 µM	> 100 µM	> 100 µM	9.16 µM	0.307 µM	0.572 µM	0.366 µM	–	–
C[C@]12CCC(=O)CC1CCCC2=O (some centres undefined)	–	> 100 µM	–	–	–	> 100 µM	–	> 100 µM	–	> 100 µM	–	> 100 µM	> 100 µM	> 100 µM	> 100 µM	–	–	–	–	–
COc1ccc(C2=C(c3ccc(OC)c(OC)c3)C(=O)N3CCCC3C2)cc1 (centres undefined)	9.03 µM	> 72.6 µM	> 100 µM	> 100 µM	–	–	> 90.4 µM	> 100 µM	11.5 µM	> 38.2 µM	4.46 µM	23.3 µM	> 100 µM	> 100 µM	> 100 µM	13.6 µM	34.1 µM	45.7 µM	42.3 µM	> 100 µM
CCN(CC)c1oc(N(CC)CC)c(C(=O)Nc2ccccn2)c(=O)c1C(C)=O	–	> 100 µM	–	> 100 µM	–	> 100 µM	–	> 100 µM	–	–	–	> 100 µM	> 100 µM	> 100 µM	> 100 µM	–	–	–	–	–
[O-]c1ccccc1/C=N/C(/N=C/c1ccccc1[O-])c1ccccc1O.[O-]c1ccccc1/C=N/C(/N=C/c1ccccc1[O-])c1ccccc1O.[Zr+4]	22.4 µM	> 100 µM	30 µM	> 100 µM	46.1 µM	> 100 µM	–	–	–	–	34 µM	> 100 µM	> 100 µM	> 100 µM	–	42 µM	–	57.3 µM	28.3 µM	> 100 µM
CCSc1nc(SCC)c2c(-c3ccc(OC)c(OC)c3)c(C#N)c(SCC)nc2n1	26.6 µM	78.8 µM	18.8 µM	47.7 µM	17.4 µM	53.3 µM	14.9 µM	53.1 µM	59.7 µM	> 100 µM	21.8 µM	> 100 µM	56.7 µM	–	–	–	–	21.7 µM	–	–
